Source: patent US5552427A, “Glutaminase inhibitory compounds, compositions, and methods of use” (Takeda Chemical Industries, Ltd., priority 1993, dated 1996)
≈ marks a conversion by molar mass, not a printed value. Where a name gives a salt, the structure may show the parent alone. Read-outs that look alike come from different tables or passages of the source. Each block holds one compound with its values, some of them ahead of it.

What was measured:
[1] = tested on: human colon carcinoma cells WiDr; assay: In vitro cell proliferation inhibitory activity (Table 1), colon carcinoma cells WiDr, MTT; assay type: cell-based; details: 72 h, read-out: IC50, Colon carcinoma cells WiDr
[2] = tested on: human normal fetal pulmonary fibroblasts HEL; assay: In vitro cell proliferation inhibitory activity (Table 1), normal cells HEL, MTT; assay type: cell-based; details: Pulmonary fibroblast, 72 h, read-out: IC50, Normal cells HEL
[3] = target: T1, mitochondrial membrane enzyme glutaminase (Homo sapiens, UniProt O94925); assay: Inhibitory activity against the mitochondrial membrane enzyme glutaminase (crude enzyme of WiDr cells); assay type: biochemical; details: WiDr mitochondrial fraction, tritium-labelled glutamine 0.8 μM, phosphoric acid 200 mM, pH 8.0, 37° C., 15 minutes; read-out: IC50, enzymatic activity of glutaminase
T1 sequence (O94925 73-669 limits assumed): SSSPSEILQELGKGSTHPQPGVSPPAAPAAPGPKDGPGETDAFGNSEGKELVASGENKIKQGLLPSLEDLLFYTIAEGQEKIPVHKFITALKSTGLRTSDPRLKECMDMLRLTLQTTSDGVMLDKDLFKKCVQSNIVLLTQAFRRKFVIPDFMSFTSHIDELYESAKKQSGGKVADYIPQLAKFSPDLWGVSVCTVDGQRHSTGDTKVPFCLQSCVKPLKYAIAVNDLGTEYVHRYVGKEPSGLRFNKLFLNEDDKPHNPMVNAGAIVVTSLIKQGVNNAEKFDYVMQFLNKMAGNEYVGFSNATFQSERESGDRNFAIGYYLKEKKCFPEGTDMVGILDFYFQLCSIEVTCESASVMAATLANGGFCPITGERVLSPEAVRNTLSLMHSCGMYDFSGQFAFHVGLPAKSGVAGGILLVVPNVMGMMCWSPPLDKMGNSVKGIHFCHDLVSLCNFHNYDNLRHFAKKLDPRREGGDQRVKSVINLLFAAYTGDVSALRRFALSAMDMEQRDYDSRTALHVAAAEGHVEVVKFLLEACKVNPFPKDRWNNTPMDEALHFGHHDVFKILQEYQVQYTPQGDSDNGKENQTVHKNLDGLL

[4] = tested on: human colon carcinoma cells WiDr transplanted to nude mice; assay: Activity of a compound having a protective group at the 2-amino group, WiDr transplanted to nude mice (Test Example 4); assay type: in vivo, human cells in Balb/C female nude mice; details: oral
Protocol: Activity of a compound having a protective group at the 2-amino group
The human colon carcinoma cells WiDr (5,000,000 cells) were subcutaneously transplanted to the thoracic parts of Balb/C female nude mice (7 weeks old). On the 5th day after the transplantation, the tumor cell size was measured. Five mice (per group) with almost the same tumor size were used for this experiment. A solution of 2-benzyloxycarbonylamino-1-methylimidazole hydrochloride (80 mg/kg body weight) of the present invention in physiological saline was orally administered 3 times a day for 3 days. The day following the end of the administration, the tumor cell size was measured. The tumor volume was calculated from the following equation:
(§1) Tumor volume=(major axis)×(minor axis)×(minor axis)×(1/2)
(§2) The ratio of the tumor volume in the treated group to that in a control group to which physiological saline was administered was calculated as a proliferation rate.

[5] = tested on: large intestinal cancer cell strains; assay: Cell proliferation inhibitory tests, panel as a whole (selectivity in words); assay type: cell-based, human; details: large intestinal cancer cells / tumor cells
Protocol: A cellular suspension (50 μl, 2,000 cells) of the human colon carcinoma cells WiDr or human normal fetal pulmonary fibroblasts HEL was inoculated in a 96-well microplate, and incubated at 37° C. in a 5% carbonic acid gas incubator. The next day, a 2-fold serially diluted solution (50 μl) of each compound was added and incubated for 3 days. The culture broth containing the compound was removed, the cells were washed, MTT pigment solution was added, and the surviving cell number was determined (Tada et al., J. Immunol. Methods, 93, 157-165 (1986)). The cell amount in a control group not treated with the compound solution was used as a standard (100%). The ratio of the cell amount in each treated group to that in the control group was calculated, and the IC50 (i.e., a compound concentration required for decreasing the surviving cell amount to 50% of that in the control group) was calculated.
(§3) to that in the control group was calculated, and the IC50 (i.e., a compound concentration required for decreasing the surviving cell amount to 50% of that in the control group) was calculated.

[6] = tested on: Breast carcinoma Hs578T; assay: Cell proliferation inhibitory test (Table 2); assay type: cell-based; details: Homo sapiens, Hs-578T; Breast carcinoma Hs578T (Table 2); read-out: IC50, cell strain Hs578T
Protocol: as §3

[7] = tested on: Colon carcinoma LS180; assay: Cell proliferation inhibitory test (Table 2); assay type: cell-based; details: Homo sapiens; Colon carcinoma LS180 (Table 2); read-out: IC50, cell strain LS180
Protocol: as §3

[8] = tested on: Breast carcinoma T-47D; assay: Cell proliferation inhibitory test (Table 2); assay type: cell-based; details: Homo sapiens, T47D; Breast carcinoma T-47D (Table 2); read-out: IC50, cell strain T-47D
Protocol: as §3

[9] = tested on: Colon carcinoma T84; assay: Cell proliferation inhibitory test (Table 2); assay type: cell-based; details: Colon carcinoma T84 (Table 2); read-out: IC50, cell strain T84
Protocol: as §3

[10] = tested on: Lung carcinoma A549; assay: Cell proliferation inhibitory test (Table 2); assay type: cell-based; details: Homo sapiens; Lung carcinoma A549 (Table 2); read-out: IC50, cell strain A549
Protocol: as §3

[11] = tested on: Colon carcinoma SW48; assay: Cell proliferation inhibitory test (Table 2); assay type: cell-based; details: Homo sapiens; Colon carcinoma SW48 (Table 2); read-out: IC50, cell strain SW48
Protocol: as §3

[12] = tested on: Colon carcinoma SW620; assay: Cell proliferation inhibitory test (Table 2); assay type: cell-based; details: Homo sapiens, SW-620; Colon carcinoma SW620 (Table 2); read-out: IC50, cell strain SW620
Protocol: as §3

[13] = tested on: Breast carcinoma MDA-MB-231; assay: Cell proliferation inhibitory test (Table 2); assay type: cell-based; details: Homo sapiens; Breast carcinoma MDA-MB-231 (Table 2); read-out: IC50, cell strain MDA-MB-231
Protocol: as §3

[14] = tested on: Colon carcinoma SW948; assay: Cell proliferation inhibitory test (Table 2); assay type: cell-based; details: Homo sapiens; Colon carcinoma SW948 (Table 2); read-out: IC50, cell strain SW948
Protocol: as §3

[15] = tested on: Colon carcinoma SW403; assay: Cell proliferation inhibitory test (Table 2); assay type: cell-based; details: Homo sapiens, SW-403; Colon carcinoma SW403 (Table 2); read-out: IC50, cell strain SW403
Protocol: as §3

[16] = tested on: Breast carcinoma MDA-MB-453; assay: Cell proliferation inhibitory test (Table 2); assay type: cell-based; details: Homo sapiens; Breast carcinoma MDA-MB-453 (Table 2); read-out: IC50, cell strain MDA-MB-453
Protocol: as §3

[17] = tested on: Colon carcinoma LoVo; assay: Cell proliferation inhibitory test (Table 2); assay type: cell-based; details: Homo sapiens; Colon carcinoma LoVo (Table 2); read-out: IC50, cell strain LoVo
Protocol: as §3

[18] = tested on: Throat cancer KB; assay: Cell proliferation inhibitory test (Table 2); assay type: cell-based; details: Throat cancer KB (Table 2); read-out: IC50, cell strain KB
Protocol: as §3

[19] = tested on: Colon carcinoma WiDr; assay: Cell proliferation inhibitory test (Table 2); assay type: cell-based; details: Homo sapiens; Colon carcinoma WiDr (Table 2); read-out: IC50, cell strain WiDr
Protocol: as §3

[20] = tested on: Breast carcinoma SK-BR-3; assay: Cell proliferation inhibitory test (Table 2); assay type: cell-based; details: Homo sapiens; Breast carcinoma SK-BR-3 (Table 2); read-out: IC50, cell strain SK-BR-3
Protocol: as §3

[21] = tested on: human colon carcinoma cells WiDr transplanted to nude mice; assay: In vivo colon carcinoma inhibitory activity, WiDr transplanted to nude mice (Test Example 3); set-up: species or system human cells in Balb/C female nude mice; details: oral; for Proliferation rate (tumor volume, treated/control): 3 times a day for 3 days, control = 100
Protocol: In vivo colon carcinoma inhibitory activity
The human colon carcinoma cells WiDr (5,000,000 cells) were subcutaneously transplanted to a thoracic part of each of Balb/C female nude mice (7 weeks of age). On the 5th day after the transplantation, the tumor size was measured. Five mice (per group) with almost the same tumor size were used for this experiment. Each of solutions of 2-amino-1-methylimidazole hydrochloride (50 mg/kg body weight, 100 mg/kg body weight and 200 mg/kg body weight) of the present invention in physiological saline was orally administered 3 times a day for 3 days. The day following the end of the administration, the tumor size was measured. The tumor volume was calculated from the following equation:
as §1, §2

[22] = 3 days incubation, MTT (Table 1)
[23] = HEL, 3 days incubation, MTT (Table 1)

IC50 [1, 22]: 11 µg/mL
SMILES: COC(=O)[C@@H](N)CC(=O)Nc1nccn1C.Cl.Cl [Example 13, methyl (2S)-2-amino-3-[(1-methylimidazol-2-yl)carbamoyl]propionate dihydrochloride]
IC50 [2, 23]: > 80 µg/mL

IC50 [1, 22]: 2.2 µg/mL
SMILES: COc1ccc(C=Nc2nccn2C)cc1.Cl [Reference Example 9, N-(1-methylimidazol-2-yl)-4-methoxybenzylideneamine hydrochloride]
IC50 [2, 23]: > 80 µg/mL

IC50 [3]: 40 mM
SMILES: COC(=O)[C@@H](N)Cn1ccnc1N [Example 5, 3-(2-aminoimidazol-1-yl)-L-alanine methyl ester dihydrochloride]

IC50 [1, 22]: 1.4 µg/mL
IC50 [3]: 100 mM
SMILES: CN1CCN=C1N [2-Amino-1-methylimidazoline hydrochloride]
IC50 [2, 23]: > 80 µg/mL

IC50 [1, 22]: 5 µg/mL (≈ 22.1 µM)
SMILES: Cn1ccnc1NC(=O)CC[C@H](N)C(=O)O [Example 9, (2S)-2-amino-4-[(1-methylimidazol-2-yl)carbamoyl]butyric acid]
IC50 [2, 23]: > 80 µg/mL

IC50 [1, 22]: 1.4 µg/mL (≈ 7.56 µM)
SMILES: Cn1ccnc1N=Cc1ccccc1 [Reference Example 7, N-(1-methylimidazol-2-yl)benzylideneamine]
IC50 [2, 23]: > 80 µg/mL

IC50 [1, 22]: 4.4 µg/mL
IC50 [3]: 50 mM
SMILES: CCn1ccnc1N.Cl [2-Amino-1-ethylimidazole hydrochloride]
IC50 [2, 23]: > 80 µg/mL

IC50 [1, 22]: 4.2 µg/mL
SMILES: C=CCn1ccnc1N.Cl [Example 1, 2-amino-1-(2-propenyl)imidazole hydrochloride]
IC50 [2, 23]: > 80 µg/mL

IC50 [1, 22]: 5 µg/mL
SMILES: COC(=O)[C@@H](N)CCC(=O)Nc1nccn1C [Example 8, methyl (2S)-2-amino-4-[(1-methylimiazol-2-yl)carbamoyl]butyrate dihydrochloride]
IC50 [2, 23]: > 80 µg/mL

SMILES: Cn1ccnc1NC(=O)OCc1ccccc1 [Example 4, 2-benzyloxycarbonylamino-1-methylimidazole hydrochloride]
Proliferation rate (tumor volume, treated/control) ([4]; 80 mg/kg, 3 times a day for 3 days, control = 100): 70%
Inhibition of proliferation of transplanted WiDr (in words) ([4]; nude mice): inhibited the proliferation of the human large intestinal cancer cell strain WiDr transplanted to nude mice

IC50 [1, 22]: 1.1 µg/mL
IC50 [3]: 30 mM
IC50 [6]: 7 µg/mL
IC50 [7]: 6.3 µg/mL
IC50 [8]: 13 µg/mL
IC50 [9]: 2.8 µg/mL
IC50 [10]: 20 µg/mL
IC50 [11]: 8.6 µg/mL
IC50 [12]: 11 µg/mL
IC50 [13]: > 80 µg/mL
IC50 [14]: 3.9 µg/mL
IC50 [15]: 5.2 µg/mL
IC50 [16]: > 80 µg/mL
IC50 [17]: 7.6 µg/mL
IC50 [18]: > 80 µg/mL
IC50 [19]: 1.1 µg/mL
IC50 [20]: > 80 µg/mL
SMILES: Cl.Cn1ccnc1N [2-Amino-1-methylimidazole hydrochloride]
Selective inhibition of proliferation (in words) [5]: selectively inhibits the proliferation of the large intestinal cancer cell strains
IC50 [2, 23]: > 80 µg/mL
Proliferation rate (tumor volume, treated/control) ([21]; 50 mg/kg): 76%
Proliferation rate (tumor volume, treated/control) ([21]; 100 mg/kg): 64%
Proliferation rate (tumor volume, treated/control) ([21]; 200 mg/kg): 49%
Inhibition of proliferation of transplanted WiDr (in words) ([21]; nude mice): inhibited the proliferation of the human colon carcinoma cell strain WiDr transplanted to the nude mice in a concentration-dependent manner

SMILES: Nc1ncc[nH]1.O=S(=O)(O)O [2-Aminoimidazole sulfate]
IC50 [1]: 12 µg/mL
IC50 [2]: > 80 µg/mL
